Patent EP0019589A1, “Tripeptide derivatives and their use in a process for determining enzymes” (Pentapharm A.G., priority 1979, dated 1980)
Non-standard residues stand in square brackets, D forms with d. Residues, ends and D or L forms follow the SMILES beside them. *: point of attachment. dChg = N[C@@H](C(=O)O)C1CCCCC1; dPhg = N[C@@H](C(=O)O)c1ccccc1; pNA = O=[N+]([O-])c1ccc(N*)cc1; Chg = N[C@H](C(=O)O)C1CCCCC1

Assays:
Type in all cases: biochemical
Humanplasmin = target: T1, Humanplasmin (Homo sapiens, UniProt P00747); experiment: Cleavage of chromogenic substrate by human plasmin; conditions: 1 CU-Einheit human plasmin, per min; Substratkonzentration 2 x 10^-4 molar
T1 construct: da bei der Aktivierung aus 1 Molekül Plasminogen 1 Molekül Plasmin entsteht
T1 sequence (P00747 581-810 limits assumed): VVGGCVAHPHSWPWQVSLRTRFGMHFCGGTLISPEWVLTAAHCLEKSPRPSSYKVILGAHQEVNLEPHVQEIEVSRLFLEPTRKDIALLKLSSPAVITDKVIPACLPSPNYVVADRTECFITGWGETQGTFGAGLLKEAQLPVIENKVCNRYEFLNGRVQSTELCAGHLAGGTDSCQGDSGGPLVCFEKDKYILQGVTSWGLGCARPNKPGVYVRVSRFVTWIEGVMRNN
T1 sequence (P00747 97-580 partner limits assumed): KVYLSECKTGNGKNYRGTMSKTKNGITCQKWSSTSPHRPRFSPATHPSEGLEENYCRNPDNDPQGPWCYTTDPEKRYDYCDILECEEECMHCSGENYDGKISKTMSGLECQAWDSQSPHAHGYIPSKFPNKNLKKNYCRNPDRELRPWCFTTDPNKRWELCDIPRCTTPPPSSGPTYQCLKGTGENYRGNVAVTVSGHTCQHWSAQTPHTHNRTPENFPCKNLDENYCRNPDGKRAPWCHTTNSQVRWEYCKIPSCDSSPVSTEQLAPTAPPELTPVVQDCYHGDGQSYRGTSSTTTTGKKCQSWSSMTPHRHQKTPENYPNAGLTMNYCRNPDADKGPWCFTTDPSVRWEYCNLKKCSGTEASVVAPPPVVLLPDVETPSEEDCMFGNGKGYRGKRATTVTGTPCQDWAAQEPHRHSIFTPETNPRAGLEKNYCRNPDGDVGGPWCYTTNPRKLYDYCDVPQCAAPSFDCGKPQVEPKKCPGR
Description: 3. Bestimmung von Plasmin:
Man mischt 1,7 ml TRIS-Imidazol-Puffer (pH 7,5, Ionenstärke 0,2) bei 37°C mit 0,1 ml einer Lösung von Plasmin in 25%igem Glycerin und inkubiert die Mischung während 1 Min. bei 37°C. Dann gibt man der Mischung 0,2 ml einer wässrigen 2 x 10^-3 molaren Substxatlösung von 37°C zu und durchmischt das Ganze schnell. Man ermittelt dann kontinuierlich die pro Zeiteinheit aus dem Substrat freigesetzte Menge des Spaltproduktes R-NH2. Aus dem pro Min. ermittelten Wert berechnet man dann die Plasminaktivität pro ml Probe in mU nach der folgenden Formel: [formula] • ΔE = pro Min. freigesetzte Menge des Spaltproduktes • V = Totalvolumen des Testansatzes • v = Volumen der Probe • = Extinktionskoeffizient dividiert durch 1000
(§1) Bei der Messung des durch die enzymatische Hydrolyse des Substrates gebildeten Spaltproduktes RrNH2 geht man von der Voraussetzung aus, dass das Spaltprodukt ein UV-Spektrum besitzt, das von demjenigen des Substrates verschieden und in Richtung höherer Wellenlängen verschoben ist. Die Absorption des Substrates bei 405 nm ist praktisch Null. p-Nitroanilin als Spaltprodukt weist ein Absorptionsmaximum bei 380 nm und einen molaren Extinktionskoeffizienten von 13'200 auf. Bei 405 nm ist der Extinktionskoeffizient nur wenig niedriger, d.h. […] Der Grad der enzymatischen Hydrolyse des Substrates, welcher der Menge des abgespaltenen p-Nitroanilins proportional ist, lässt sich durch spektrophotometrische Messung bei 405 nm bestimmen. Auch bei Anwesenheit eines Ueberschusses an Substrat wird die Messung bei 405 nm nicht gestört.
(§2) Bei den Substraten, die als chromogene Gruppe eine 2-Naphthylamino-, 4-Methoxy-2-naphthylamino-, 4-Methyl-cumaryl-(7)-amino- oder 1,3-Di(methoxycarbonyl)-phenyl-(5)-amino-Gruppe enthalten, wird die Menge des Spaltproduktes R-NH2 durch Fluoreszenzspektrophotometrie gemessen. In einem aus Enzym, Puffer und Substrat bestehenden Testsystem misst man kontinuierlich das energieärmere emittierte Licht bei 400-470 nm, nachdem man das gebildete fluoreszierende Spaltprodukt mit energiereicherem Licht erregt hat. Die pro Zeiteinheit gebildete Menge Spaltprodukt ist ein Mass für die vorhandene Enzymaktivität. 1 µMol Spaltprodukt pro Minute entspricht definitionsgemäss 1 Enzym-Einheit, bezogen auf ein gegebenes Substrat.

Urinkallikrein = target: T2, Urinkallikrein (Homo sapiens, UniProt P06870); experiment: Cleavage of chromogenic substrate by urinary kallikrein in human urine; conditions: 1 ml human urine (pooled morning urine of healthy persons), per min; Substratkonzentration 2 x 10^-4 molar
T2 construct: 1 ml Urin und 1 ml TRIS-Imidazol-Puffer mit pH 7,9; from tissue; host or cells: human urine
T2 sequence (P06870 25-262): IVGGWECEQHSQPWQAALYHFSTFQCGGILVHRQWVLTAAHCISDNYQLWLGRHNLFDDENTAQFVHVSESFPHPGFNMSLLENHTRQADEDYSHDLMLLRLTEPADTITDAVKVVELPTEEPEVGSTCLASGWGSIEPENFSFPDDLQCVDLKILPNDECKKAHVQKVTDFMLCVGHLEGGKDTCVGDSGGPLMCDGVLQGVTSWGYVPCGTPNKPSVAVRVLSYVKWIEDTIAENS
Description: 1. Bestimmung von Urinkallikrein.
1 ml Urin und 1 ml TRIS-Imidazol-Puffer mit pH 7,9 und Ionenstärke 1,0 werden 5 Min. bei 37°C inkubiert undcänn zentrifugiert, um Sedimente zu entfernen.
In einer-Plastikküvette werden 1,4 ml dest. H20 von 37°C und 0,4 ml des Zentrifugats gut gemischt. Zu dieser Mischung gibt man 0,2 ml einer 2 x 10^-3 molaren wässrigen Substratlösung und durchmischt die Komponenten schnell. Dieses Gemisch wird genau 15 Min. bei 37°C inkubiert. Dann wird dem Reaktionsgemisch 0,2 ml Eisessig zugemischt, um die Enzymreaktion zu unterbrechen. Zur Farbmessung verwendet man eine Vergleichsprobe (Blindprobe), die aus den gleichen Komponenten zusammengesetzt ist, wobei jedoch der Eisessig vor Zugabe des Substrates zugesetzt wird, um die Enzymreaktion zu verhindern. Dann wird bei 405 nm photometrisch oder spektrophotometrisch die Menge der gebildeten farbigen Verbindung RNH 2 aus der Differenz zwischen der Blindprobe und der zu bestimmenden Probe ermittelt. Aus dem ermittelten Wert wird die Urinkallikreinaktivität im Urin nach der folgenden Formel berechnet: [formula] • Δ OD = Zunahme der optischen Dichte bei 405 nm während 15 Min. • V = Totalvolumen des Bestimmungsansatzes = 2,2 ml • 1000 = Umrechnungsfaktor zur Umwandlung von U in mU • F = Verdünnungsfaktor des Urins (2) • v = Volumen der Probe = 0,4 ml • ε = Extinktionskoeffizient dividiert durch 1000 = 10,4
Bei der oben beschriebenen Bestimmungsmethode misst man somit die Summe der Aktivitäten von Urinkallikrein und Urokinase. Um die genaue Urinkallikreinaktivität zu erhalten, muss man die Urokinaseaktivität abziehen, welche dadurch bestimmt werden kann, dass man in einem Vergleichsversuch durch Zugabe von 0,075 Einheiten Trypsininhibitor (Trypsininhibitor aus Rinderlunge) pro ml Puffer die Urinkallikreinaktivität vollständig hemmt und nur die Urokinaseaktivität misst.
as §1, §2

Humanthrombin = target: T3, Humanthrombin (Homo sapiens, UniProt P00734); experiment: Cleavage of chromogenic substrate by human NIH thrombin; conditions: 1 NIH-Einheit human thrombin, per min; Substratkonzentration 2 x 10^-4 molar
T3 construct: Humanplasmin und hu-manem NIH-Thrombin
From the text: as §1, §2

[1] = target: T4, Submandibularis-Kallikrein (Homo sapiens, UniProt P06870); experiment: Cleavage of chromogenic substrate by submandibular (glandular) kallikrein in human sputum; conditions: 1 ml human sputum, per min; Substratkonzentration 2 x 10^-4 molar
T4 construct: Man mischt 0,5 ml Sputum mit 2 ml TRIS-Imidazol-Puffer; from tissue; host or cells: human sputum
T4 sequence (P06870 25-262): as above
Description: 2. Bestimmung des Glandulärkallikreins im Sputum: • Man mischt 0,5 ml Sputum mit 2 ml TRIS-Imidazol-Puffer (Ionenstärke 1,0) und präinkubiert die Mischung 5 Min. bei 37°C. Das Inkubat wird zentrifugiert. In eine Testküvette wird 1,5 ml dest. H2O von 37°C vorgelegt und mit 0,25 ml des Zentrifugats versetzt. Die Komponenten werden gut gemischt. Dann wird 0,2 ml 2 x 10-^3 molare wässrige Substratlösung zugesetzt und gemischt. Dann wird bei 405 nm die Extinktions- änderung kontinuierlich mittels eines Schreibers während 5-10 Min. verfolgt. Aus dem ermittelten Δ OD pro Min. wird mittels der nachstehenden Formel die Kallikreinaktivität pro ml Sputum in mU errechnet: [formula] • F = 5 • V = 1,95 • v = 0,25 • 1 U (Einheit) = Enzymmenge, die während 1 Min. 1 µMol Substrat unter optimalen oder sonst festgelegten Bedingungen in Bezug auf pH, Ionenstärke, Temperatur und Substratkonzentration zu spalten vermag
as §1, with “gestört. […]” for “gestört.”

Row | Structure (SMILES) | Menge des durch 1 CU-Einheit Humanplasmin pro Min. freigesetzten Spaltproduktes R-NH2 in Nanomol (Humanplasmin) (Humanplasmin) [Nanomol] | Menge des durch 1 ml Humanurin pro Min. freigesetzten Spaltproduktes R-NH2 in Nanomol (Urinkallikrein) (Urinkallikrein) | Menge des durch 1 NIH-Einheit Thrombin pro Min. freigesetzten Spaltproduktes R-NH2 in Nanomol (Humanthrombin) (Humanthrombin) | Menge des durch 1 ml Humansputum pro Min. freigesetzten Spaltproduktes R-NH2 in Nanomol (Submandibularis-Kallikrein) [1]
1 | N=C(N)NCCC[C@H](NC(=O)[C@@H](NC(=O)[C@H](N)Cc1ccccc1)C1CCCCC1)C(=O)Nc1ccc([N+](=O)[O-])cc1 [Beispiel 61, 2HBr.H-D-Phe-CHG-Arg-pNA] (H-[dF]-[Chg]-Arg-pNA) | 60 | 0,33 Nanomol | 3,7 Nanomol | 4,9 Nanomol
2 | N=C(N)NCCC[C@H](NC(=O)[C@@H](NC(=O)[C@H]1CCCN1)C1CCCCC1)C(=O)Nc1ccc([N+](=O)[O-])cc1 [Beispiel 24, 2HBr.H-D-Pro-CHG-Arg-pNA] (H-[dP]-[Chg]-Arg-pNA) | 10 | 1,87 Nanomol | 0,29 Nanomol | 5,7 Nanomol
3 | CC(C)C[C@H](NC(=O)[C@H](N)Cc1ccccc1)C(=O)N[C@@H](CCCNC(=N)N)C(=O)Nc1ccc([N+](=O)[O-])cc1 [Beispiel 50, 2HBr.H-D-Phe-Leu-Arg-pNA] (H-[dF]-Leu-Arg-pNA) | 313 | 0,61 Nanomol | 14,4 Nanomol | 6,8 Nanomol
4 | N=C(N)NCCC[C@H](NC(=O)[C@@H](NC(=O)[C@H](N)C1CCCCC1)C1CCCCC1)C(=O)Nc1ccc([N+](=O)[O-])cc1 [Beispiel 59, 2HBr.H-D-CHG-CHG-Arg-pNA] (H-[dChg]-[Chg]-Arg-pNA) | 101 | 0,33 Nanomol | 7,5 Nanomol | 5,9 Nanomol
5 | N=C(N)NCCC[C@H](NC(=O)[C@H](Cc1ccccc1)NC(=O)[C@H](N)c1ccccc1)C(=O)Nc1ccc([N+](=O)[O-])cc1 [Beispiel 63, 2HBr.H-D-Ph'Gly-Phe-Arg-pNA] (H-[dPhg]-Phe-Arg-pNA) | 841 | 0,42 Nanomol | 2,4 Nanomol | 7,0 Nanomol
6 | CC(C)C[C@H](NC(=O)[C@H](N)c1ccccc1)C(=O)N[C@@H](CCCNC(=N)N)C(=O)Nc1ccc([N+](=O)[O-])cc1 [Beispiel 26, 2HBr.H-D-Ph'Gly-Leu-Arg-pNA] (H-[dPhg]-Leu-Arg-pNA) | 194 | 0,19 Nanomol | 0,8 Nanomol | 8,3 Nanomol
7 | CC(C)C[C@H](NC(=O)[C@H](N)CC1CCC(O)CC1)C(=O)N[C@@H](CCCNC(=N)N)C(=O)Nc1ccc([N+](=O)[O-])cc1 (stereo partly drawn) [Beispiel 51, 2HBr.H-D-CHT-Leu-Arg-pNA] | 596 | 0,33 Nanomol | 58,1 Nanomol | 11,7 Nanomol
